Legend:
Meth A sarcoma [1] = assay: Effect with lipopolysaccharide on growth of Meth A sarcoma in mice; format: in vivo
Procedure: BALB/C mice 7-8 weeks of age were injected subcutaneously with Meth A sarcoma (1×10^6 cells) and treated intravenously on day 8 with 10 μg of lipopolysaccharide (LPS) from Salmonella typhimurium ReG 30/21 alone or combined with 1 or 10 μg of MDP or Compound IIA. Tumor growth was compared on day 6 following therapy.
The animals were followed and the percent cured determined at 60 days post-injection.

[2] = test system: Human peripheral blood mononuclear cells; assay: Activation of monocytes in vitro measured by in vitro tumor cell cytotoxicity; format: cell-based
Procedure: Human peripheral blood mononuclear cells were isolated by density gradient centrifugation on 46% Percoll. 1×10^5 of the mononuclear cells were plated onto Falcon microliter plates and allowed to adhere for two hours. The non-adherent cells were removed and fresh media added. The cells were allowed to incubate for 24 hours after which various concentrations of the drug either alone or incorporated in liposomes was added. After 24 hours, the plates were washed and 1×10^4 I^125 labelled target cells were added. Following an additional 72 hours of coincubation, the plates were washed and the residual radioactivity determined. The specific cytotoxicity was calculated from the formula: [formula] The results of cytotoxicity assay of various compounds alone or incorporated in liposomes at various concentrations is given in Table 6.

[3] = test system: human peripheral blood monocytes; assay: Activation of monocytes in vitro measured by production of Interleukin-1-beta (ELISA); format: cell-based; details: 24 Hours
Procedure: (§1) Human peripheral blood monocytes were isolated by density gradient centrifugation as noted in Example 13. The cell number was adjusted to 5×10^5 cells per ml in RPM 1640 media containing 5% human AB negative serum. One ml containing 5×10^5 cells were placed in individual wells of 24-well Plastek tissue culture plate. Various drugs in a volume of 0.5 ml were added at time zero. The compounds were also formulated in liposomes as described in Example 10, and added in a volume of 0.5 ml to individual wells of a 24-well Plastek tissue culture plate. The cells were incubated at 37° C. in a 5% CO2 atmosphere. Aliquots (0.1 ml) of the supernatant were removed at 24 hours and frozen at -20° C. These samples were subsequently assayed for TNF as described in Example 33 and Interleukin-1-beta (IL-1β) using a commercially available ELISA kit from Cistron (Pine Brook, N.J.).

[4] = test system: human peripheral blood monocytes; assay: Activation of monocytes in vitro measured by production of tumor necrosis factor (ELISA); format: cell-based; details: for TNF (pg/ml) at given Concentration of Compound: 24 Hours
Procedure: Human peripheral blood monocytes were isolated by density gradient centrifugation as noted in Example 13. The cell number was adjusted to 5×10^5 cells per ml in RPM 1640 media containing 5% human AB negative serum. One ml containing 5×10^5 cells were placed in individual wells of a 24-well Plastek tissue culture plate. Various drugs in a volume of 0.5 ml were added at time zero. The cells were incubated at 37° C. in a 5% CO2 atmosphere. Aliquots (0.1 ml) of the supernatant were removed at 24 hours and frozen at -80° C. These samples were subsequently assayed for tumor necrosis factor (TNF) activity using a commercially available ELISA Assay from T-Cell Sciences (Cambridge, Mass.).
Human peripheral blood monocytes were isolated by density gradient centrifugation as described in Example 13. The cells were plated in 24-well microliter plates as described in Example 33. The compounds Were prepared in liposomes as described in Example 10, and assayed for TNF production, as described in Example 33. The results are set forth in Table 5, and show significant levels of TNF compared to controls.
as §1

Meth A sarcoma [5] = assay: Antitumor activity in saline in the Meth A sarcoma; format: in vivo, mice
Procedure: BALB/C female mice, age 7 weeks, were injected subcutaneously with 1×10^6 Meth A tumor cells. Eight days later the animals were treated intravenously with either saline (control) or Compound IIA at a dose of 1, 10, or 100 micrograms (μg). Each group consisted of 4 animals. Tumor measurements were taken every 2 days for 10 days and the mice followed for 60 days until cured or death due to tumor occurred.

[6] = test system: human peripheral blood monocytes; assay: Activation of human peripheral blood monocytes to the tumoricidal state (I125 labeled A-375 tumor cells); format: cell-based; details: effector:target 10:1, A-375 tumor cells, 72 hours
Procedure: Monocyte tumoricidal activity was determined by the method of Fogler and Fidler (W. E. Fogler and I. J. Fidler, J. Immunol., 136; 2311-2317, 1986). Briefly, human peripheral blood monocytes were isolated by gradient centrifugation on 46% Percoll. Monocytes were then cultured in suspension for 18 hours in RPMI 1640 media containing 5% human sera with or without 1.0 μg/ml of Compound IIA at 1×10^6 monocytes/ml. After incubation monocytes were washed, and 1×10^5 or 5×10^4monocytes allowed to attach to wells of a 96-well microplate for 1 hour, then the plate was washed to remove non-adherent cells; to this, 1×10^4 I^125 labeled A-375 tumor cells were added. Monocytes were cultured with tumor cells for 72 hours. At the end of the 72 hour co-culture period, the plates were washed to remove non-adherent-non-viable tumor cells and the remaining adherent viable I^125 labeled tumor cells determined by lysing the cells with sodium dodecyl sulfate and counting radioactivity in a Gamma Counter.
Activation of human peripheral blood monocytes by liposomes consisting of PC and PG (7:3) containing Compound IIA was determined as described above.
The effector:target cell ratio was 10:1. The cultures contained a final concentration of 1.0 μg/ml of MDP, Compound IIA or Compound IIA in liposomes.

[7] = 1.0 μg combined with 10 μg LPS i.v. on day 8
[8] = 10 μg combined with 10 μg LPS i.v. on day 8

## CCCCCCCCCCCCCCCC(=O)OCC(COC(=O)C(C)NC(=O)CCC(NC(=O)C(C)NC(=O)C(C)OC1C(NC(C)=O)C(O)OC(CO)C1OC1OC(CO)C(O)C(O)C1NC(C)=O)C(N)=O)OC(=O)CCCCCCCCCCCCCCC [Compound IIA, 4-O-[2-acetamido-2-deoxy-β-D-glucopyranosyl]-2-acetamido-2-deoxy-3-O-[D-2-propanoyl-L-alanyl-D-isoglutaminyl-L-alanyl-1,2-dipalmitoyl-sn-glycerol]-D-glucopyranose]
Meth A sarcoma [1]; [7]
  Complete Regression at Day 60: 50%
  Percent Change in Average Tumor Area 6 Days Post Treatment: -56%
Meth A sarcoma [1]; [8]
  Complete Regression at Day 60: 100%
  Percent Change in Average Tumor Area 6 Days Post Treatment: -67%
Meth A sarcoma [1]; Table 3, Meth A sarcoma
  interaction with LPS: synergistic activity
[2]; PC/PS liposomes (7:3), 0.1 μg/ml
  Cytotoxicity: 1.0%
[2]; PC/PS liposomes (7:3), 1.0 μg/ml
  Cytotoxicity: 8.0%
[2]; PC/PS liposomes (7:3), 10.0 μg/ml
  Cytotoxicity: 12.0%
[2]; no formulation given (drug alone), 0.1 μg/ml
  Cytotoxicity: 5.0%
[2]; no formulation given (drug alone), 1.0 μg/ml
  Cytotoxicity: 4.0%
[2]; no formulation given (drug alone), 10.0 μg/ml
  Cytotoxicity: 3.0%
[3]; Table 8, Experiment 1, 0.01 μg/ml
  IL-1-beta (pg/ml) at given Concentration of Compound: 260 pg/mL
[3]; Table 8, Experiment 1, 0.1 μg/ml
  IL-1-beta (pg/ml) at given Concentration of Compound: 220 pg/mL
[3]; Table 8, Experiment 1, 1.0 μg/ml
  IL-1-beta (pg/ml) at given Concentration of Compound: 244 pg/mL
[3]; Table 8, Experiment 1, 10.0 μg/ml
  IL-1-beta (pg/ml) at given Concentration of Compound: 264 pg/mL
[4]; Experiment 1, free drug in saline 0.1 μg/ml, 24 hours
  TNF Level: 1760 pg/mL
[4]; Experiment 1, free drug in saline 1.0 μg/ml, 24 hours
  TNF Level: 1600 pg/mL
[4]; Experiment 1, free drug in saline 10.0 μg/ml, 24 hours
  TNF Level: 4550 pg/mL
[4]; Experiment 2, free drug in saline 0.1 μg/ml, 24 hours
  TNF Level: 1450 pg/mL
[4]; Experiment 2, free drug in saline 1.0 μg/ml, 24 hours
  TNF Level: 1580 pg/mL
[4]; Experiment 2, free drug in saline 10.0 μg/ml, 24 hours
  TNF Level: 1630 pg/mL
[4]; Experiment 3, free drug in saline 0.1 μg/ml, 24 hours
  TNF Level: 1450 pg/mL
[4]; Experiment 3, free drug in saline 1.0 μg/ml, 24 hours
  TNF Level: 1650 pg/mL
[4]; Experiment 3, free drug in saline 10.0 μg/ml, 24 hours
  TNF Level: 1800 pg/mL
[4]; Table 5, compound incorporated in liposomes, 0.1 μg/ml
  TNF Level: 1270 pg/mL
[4]; Table 5, compound incorporated in liposomes, 1.0 μg/ml
  TNF Level: 850 pg/mL
[4]; Table 5, compound incorporated in liposomes, 10.0 μg/ml
  TNF Level: 1050 pg/mL
[4]; Table 7, Experiment 1, 0.01 μg/ml
  TNF (pg/ml) at given Concentration of Compound: 650 pg/mL
[4]; Table 7, Experiment 1, 0.1 μg/ml
  TNF (pg/ml) at given Concentration of Compound: 460 pg/mL
[4]; Table 7, Experiment 1, 1.0 μg/ml
  TNF (pg/ml) at given Concentration of Compound: 620 pg/mL
[4]; Table 7, Experiment 1, 10.0 μg/ml
  TNF (pg/ml) at given Concentration of Compound: 500 pg/mL
[4]; Table 9, Experiment 2, 0.1 μg/ml
  TNF (pg/ml) at given Concentration of Compound: 1400 pg/mL
[4]; Table 9, Experiment 2, 1.0 μg/ml
  TNF (pg/ml) at given Concentration of Compound: 1700 pg/mL
[4]; Table 9, Experiment 2, 10.0 μg/ml
  TNF (pg/ml) at given Concentration of Compound: 1070 pg/mL
Meth A sarcoma [5]; 100 μg i.v.
  animals exhibiting complete regression of tumor: one of four
Meth A sarcoma [5]; day 6 after therapy, single i.v. dose of 100 μg
  decrease in tumor growth: 50%
[6]; Experiment 1, 1.0 μg/ml
  PERCENT CYTOTOXICITY: 59%
[6]; Experiment 2, 1.0 μg/ml
  PERCENT CYTOTOXICITY: 37%

— patent publication US5416070A, “Composition for macrophage activation” (ImmunoTherapeutics, Inc., priority 1990, dated 1995)
